Experimental data as given in publication PMC10762035, “Molecular basis of human trace amine-associated receptor 1 activation” (Nature Communications, 2024).
Substitutions are numbered along the chain they refer to. Values joined by “and” are separate entries in the source; they are usually repeats but may differ in a detail not shown here. Equal values may be shown once. Read-outs that look alike come from different tables or passages of the source.

Tests used:
Assay type in all cases: cell-based
[1] = biological target: T1, hTA1 W264F (Homo sapiens, UniProt Q96RJ0, W264F); assay: GloSensor cAMP accumulation assay, W264F mutant; details: W264F;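 further: cells transiently transfected with receptor plus GloSensor, luminescence read 30 min after agonist addition at room temperature, concentration-response curves fitted by log(agonist) vs response regression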
T1 construct: expressed in transfected cells; host or cells: HEK293T
T1 sequence (Q96RJ0 1-339 W264F): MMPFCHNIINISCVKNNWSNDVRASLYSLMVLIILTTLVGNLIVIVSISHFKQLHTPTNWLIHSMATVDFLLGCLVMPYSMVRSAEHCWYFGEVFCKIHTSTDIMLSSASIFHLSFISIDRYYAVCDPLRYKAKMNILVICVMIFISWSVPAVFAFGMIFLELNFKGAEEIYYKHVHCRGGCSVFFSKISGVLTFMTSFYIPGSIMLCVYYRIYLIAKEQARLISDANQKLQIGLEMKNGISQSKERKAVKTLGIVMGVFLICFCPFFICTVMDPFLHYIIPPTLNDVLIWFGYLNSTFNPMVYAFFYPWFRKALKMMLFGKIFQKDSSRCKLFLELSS

[2] = biological target: T2, β2AR-Nterm-hTA1-F112^3.41W (CryoEM Construct) (Homo sapiens, UniProt Q96RJ0, F112W); assay: GloSensor cAMP accumulation assay, cryoEM construct; details: CryoEM Construct, n=2;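 further: cells transiently co-transfected with the receptor construct and GloSensor cAMP biosensor, luminescence read after 30 min compound exposure at room temperature in the dark as cAMP accumulation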
T2 construct: FLAG (N); 10xHis (N); TEV protease site (N); expressed in transfected cells; host or cells: HEK293T
T2 sequence (Q96RJ0 with tags, fused parts or gaps F112W): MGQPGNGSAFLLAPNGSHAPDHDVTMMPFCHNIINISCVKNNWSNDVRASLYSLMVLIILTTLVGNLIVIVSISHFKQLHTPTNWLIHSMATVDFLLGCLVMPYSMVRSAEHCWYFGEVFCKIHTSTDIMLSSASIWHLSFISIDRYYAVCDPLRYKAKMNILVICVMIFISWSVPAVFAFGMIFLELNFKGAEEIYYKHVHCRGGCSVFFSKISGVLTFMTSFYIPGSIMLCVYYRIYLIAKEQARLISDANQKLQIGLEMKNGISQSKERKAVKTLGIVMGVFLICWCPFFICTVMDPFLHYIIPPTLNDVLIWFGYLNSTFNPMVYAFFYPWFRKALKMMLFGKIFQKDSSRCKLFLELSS

[3] = biological target: T3, hTA1 V184P (Homo sapiens, UniProt Q96RJ0, V184P); assay: GloSensor cAMP accumulation assay, V184P mutant
T3 construct: expressed in transfected cells; host or cells: HEK293T
T3 sequence (Q96RJ0 1-339 V184P): T1 sequence (Q96RJ0 1-339 W264F) with V184P, F264W

[4] = biological target: T4, hTA1 C178S (Homo sapiens, UniProt Q96RJ0, C178S); assay: GloSensor cAMP accumulation assay, C178S mutant; details: for Normalized Luminescence Counts: C178S (N=2), log[Agonist]
T4 construct: expressed in transfected cells; host or cells: HEK293T
T4 sequence (Q96RJ0 1-339 C178S): T1 sequence (Q96RJ0 1-339 W264F) with C178S, F264W

[5] = biological target: T5, hTA1 C88S (Homo sapiens, UniProt Q96RJ0, C88S); assay: GloSensor cAMP accumulation assay, C88S mutant; details: for Normalized Luminescence Counts: C88S (N=2), log[Agonist]
T5 construct: expressed in transfected cells; host or cells: HEK293T
T5 sequence (Q96RJ0 1-339 C88S): T1 sequence (Q96RJ0 1-339 W264F) with C88S, F264W

CN1CC2c3ccccc3Oc3ccc(Cl)cc3C2C1 (stereo not shown) [asenapine]
ΔpEC50 values (each mutant value - WT average), Mean ([1]; Asenapine): -2.045 and -2.029
Emax values, Mean ([1]; Asenapine, per experiment, 3 replicates): 34.2126 and 58.204
EC50 ([1]; Asenapine, per experiment, 3 replicates, read-out: pEC50 values Mean (converted)): 9610 nM and 9250 nM
EC50 ([1]; n=2, read-out: EC50): 9430 nM
Emax ([1]; n=2, read-out: Span ± SEM (Emax normalized to β-PEA)): 46.2 ± 12%
EC50 ([2]; read-out: EC50): 51.8 nM
Emax ([2]; read-out: Span ± SEM (Emax normalized to β-PEA)): 95.2 ± 1.98%
EC50 ([2]; read-out: pEC50 ± SEM (converted)): 52.5 nM
EC50 ([3]; V184P, n=2, read-out: EC50): 168 nM
Emax ([3]; V184P, n=2, read-out: Span ± SEM (Emax normalized to β-PEA)): 88.3 ± 8.11%
Emax values, Mean ([3]; V184S (so in the source), Asenapine, per experiment, 3 replicates): 96.3704 and 80.1474
EC50 ([3]; V184S (so in the source), Asenapine, per experiment, 3 replicates, read-out: pEC50 values Mean (converted)): 246 nM and 114 nM
Normalized Luminescence Counts ([4]; Asenapine, M -5): 75.4368 and 92.2127 and 77.6331 and 138.575 and 114.073 and 74.6126
Normalized Luminescence Counts ([4]; Asenapine, M -5.522): 79.5957 and 78.8948 and 73.2872 and 121.163 and 122.988 and 72.6381
Normalized Luminescence Counts ([4]; Asenapine, M -6): 71.3246 and 64.9226 and 70.9975 and 119.907 and 121.163 and 96.5417
Normalized Luminescence Counts ([4]; Asenapine, M -6.522): 41.1373 and 42.2588 and 39.3616 and 54.3289 and 32.5494 and 43.2597
ΔpEC50 values (each mutant value - WT average), Mean ([4]; C178S, Asenapine): -0.5777 and -0.5455
Emax values, Mean ([4]; C178S, Asenapine, per experiment, 3 replicates): 87.2953 and 116.77
EC50 ([4]; C178S, Asenapine, per experiment, 3 replicates, read-out: pEC50 values Mean (converted)): 327 nM and 304 nM
EC50 ([4]; C178S, n=2, read-out: EC50): 315 nM
Emax ([4]; C178S, n=2, read-out: Span ± SEM (Emax normalized to β-PEA)): 102%
Emax ([4]; C178S, relative to β-PEA, read-out: Emax): 102%
Normalized Luminescence Counts ([5]; Asenapine, M -5): 78.2534 and 81.5764 and 79.8011 and 111.871 and 108.238 and 123.304
Normalized Luminescence Counts ([5]; Asenapine, M -5.522): 94.436 and 87.9948 and 83.989 and 130.463 and 114.596 and 122.075
Normalized Luminescence Counts ([5]; Asenapine, M -6): 79.8011 and 74.9077 and 70.7881 and 118.656 and 108.719 and 100.545
Normalized Luminescence Counts ([5]; Asenapine, M -6.522): 57.5416 and 54.7649 and 49.5528 and 65.7127 and 60.6375 and 65.5525
Normalized Luminescence Counts ([5]; Asenapine, M -7): 23.993 and 22.8778 and 24.6531 and 32.3228 and 28.1557 and 35.9556
Normalized Luminescence Counts ([5]; Asenapine, M -7.522): 10.9969 and 9.859 and 9.563 and 7.801 and 8.763 and 9.724
Normalized Luminescence Counts ([5]; Asenapine, M -8): 6.65 and 6.24 and 5.148 and 4.382 and 5.237 and 6.305
ΔpEC50 values (each mutant value - WT average), Mean ([5]; C88S, Asenapine): -0.4947 and -0.3839
Emax values, Mean ([5]; C88S, Asenapine, per experiment, 3 replicates): 126.964 and 89.044
EC50 ([5]; C88S, Asenapine, per experiment, 3 replicates, read-out: pEC50 values Mean (converted)): 270 nM and 210 nM
EC50 ([5]; C88S, n=2, read-out: EC50): 238 nM
Emax ([5]; C88S, relative to β-PEA, read-out: Emax): 108%
